We go through 24 compounds from US20240124444A1 (Celgene Corporation, priority 2020, published 2024).

Like-named read-outs stand apart in the source and are kept apart here.

In the experiment the test system is C. parvum strain UGA1. Nature of the experiment: C. parvum growth inhibition assay (Nluc luminescence in HCT-8 cells). It counts as cell-based, Cryptosporidium parvum. Conditions: Cryptosporidium parvum; for inhibition at 1 µM / inhibition at 10 µM: HCT-8; for inhibition at 1 µM: read-out: % inh @ 1 uM C. parvum; for inhibition at 10 µM: read-out: % inh @ 10 uM C. parvum; for EC50: HCT-8, 48 h, C. parvum growth inhibition in HCT-8 cells, 48 hours, 6 concentrations 10-0.04 μM.

Where [1] appears, read: single point inhibition at 1 uM.
Setting [2] is: single point inhibition at 10 uM.
Where [3] appears, read: single point inhibition @ 10 uM.

Consider `COc1nccc(-c2cc3cnc(NC(=O)c4cn(CC5CCOC5)nc4C)cc3[nH]2)n1` (stereo in doubt) [Example 326, (S)-N-(2-(2-methoxypyrimidin-4-yl)-1H-pyrrolo[3,2-c]pyridin-6-yl)-3-methyl-1-((tetrahydrofuran-3-yl)methyl)-1H-pyrazole-4-carboxamide], for which, under setting [1], the inhibition at 1 µM is 0 to 33%. Also, the inhibition at 10 µM under setting [2] fell in the range of 0 to 33%.

Take `c1nc(NC2CCOCC2)cc2[nH]c(C3CCC3)cc12` [Example 121, 2-cyclobutyl-N-(tetrahydro-2H-pyran-4-yl)-1H-pyrrolo[3,2-c]pyridin-6-amine]: the EC50 – broadly, the midpoint of the concentration-response curve – is over 1 µM.

`CC(C)CC(=O)Nc1cc2[nH]c(-c3ccncc3)cc2cn1` [Example 134, 3-methyl-N-(2-(pyridin-4-yl)-1H-pyrrolo[3,2-c]pyridin-6-yl)butanamide]: under “single point inhibition @ 1 uM”, the inhibition at 1 µM lay in the range of 0 to 33%. Further, the inhibition at 10 µM under setting [3] lay in the range of 67 to 100%.

Turning to `COc1cccc(Nc2cc3[nH]c(-c4cncn4C)cc3cn2)c1` [Example 204, N-(3-methoxyphenyl)-2-(1-methyl-1H-imidazol-5-yl)-1H-pyrrolo[3,2-c]pyridin-6-amine], under setting [1], the inhibition at 1 µM was 33 to 66%. Besides, the inhibition at 10 µM under setting [2] lay within 67 to 100%.

Take `COc1nccc(-c2cc3cnc(NC(=O)[C@H]4C[C@@H](O)C4)cc3[nH]2)n1` [Example 167, (1s,3s)-3-hydroxy-N-(2-(2-methoxypyrimidin-4-yl)-1H-pyrrolo[3,2-c]pyridin-6-yl)cyclobutanecarboxamide]: the inhibition at 1 µM (single point inhibition @ 1 uM) was 33 to 66%. Under setting [3], the inhibition at 10 µM lay in the range of 67 to 100%.

`O=C(CC1CCCC1)Nc1cc2[nH]c(-c3ccncc3)cc2cn1` [Example 207, 2-cyclopentyl-N-(2-(pyridin-4-yl)-1H-pyrrolo[3,2-c]pyridin-6-yl)acetamide]: the inhibition at 1 µM under setting [1] lay in the range of 0 to 33%. The inhibition at 10 µM under setting [2] lay in the range of 67 to 100%.

Turning to `CC(C)n1cc(C(=O)Nc2cc3[nH]c(-c4ccnc(OCCC(F)(F)F)n4)cc3cn2)cn1` [Example 175, 1-isopropyl-N-(2-(2-(3,3,3-trifluoropropoxy)pyrimidin-4-yl)-1H-pyrrolo[3,2-c]pyridin-6-yl)-1H-pyrazole-4-carboxamide], the inhibition at 1 µM (single point inhibition @ 1 uM) lay within 0 to 33%. Also, the inhibition at 10 µM under setting [3] lay within 67 to 100%.

As for `CC(C)n1cc(C(=O)Nc2cc3c(cn2)cc(-c2ccnc(NC4CC4)n2)n3C)cn1` [Example 132, N-(2-(2-(cyclopropylamino)pyrimidin-4-yl)-1-methyl-1H-pyrrolo[3,2-c]pyridin-6-yl)-1-isopropyl-1H-pyrazole-4-carboxamide], the inhibition at 1 µM (single point inhibition @ 1 uM) is 0 to 33%. Also, under setting [3], the inhibition at 10 µM lay in the range of 67 to 100%.

In the case of `CCOc1nccc(-c2cc3cnc(NC(=O)c4cnn([C@H]5C[C@H](O)C5)c4)cc3[nH]2)n1` [Example 270, N-(2-(2-ethoxypyrimidin-4-yl)-1H-pyrrolo[3,2-c]pyridin-6-yl)-1-((1r,3r)-3-hydroxycyclobutyl)-1H-pyrazole-4-carboxamide], the inhibition at 1 µM under setting [1] was 0 to 33%. Moreover, the inhibition at 10 µM under setting [2] was in the range of 0 to 33%.

As for `Cc1c[nH]c2cc(NC(=O)C3CC3)ncc12` [Example 115, N-(3-methyl-1H-pyrrolo[3,2-c]pyridin-6-yl)cyclopropanecarboxamide], the EC50 is over 1 µM.

On to `Cc1cc(-c2cc3cnc(NC(=O)c4cc(C(F)F)nn4C)cc3[nH]2)ccn1` [Example 218, 3-(difluoromethyl)-1-methyl-N-(2-(2-methylpyridin-4-yl)-1H-pyrrolo[3,2-c]pyridin-6-yl)-1H-pyrazole-5-carboxamide], for which, under setting [1], the inhibition at 1 µM was 0 to 33%. The inhibition at 10 µM under setting [2] was 33 to 66%.

Take `O=C(Nc1cc2[nH]c(-c3nc[nH]n3)cc2cn1)C1CC1` [Example 201, N-(2-(1H-1,2,4-triazol-3-yl)-1H-pyrrolo[3,2-c]pyridin-6-yl)cyclopropanecarboxamide]: the inhibition at 1 µM under setting [1] lay within 0 to 33%. The inhibition at 10 µM under setting [2] fell in the range of 67 to 100%.

For `Cn1cc(Nc2cc3[nH]c(C#N)cc3cn2)cn1` [Example 164, 6-(1-methyl-1H-pyrazol-4-ylamino)-1H-pyrrolo[3,2-c]pyridine-2-carbonitrile], under “single point inhibition @ 1 uM”, the inhibition at 1 µM was 0 to 33%. In addition, the inhibition at 10 µM under setting [3] was 67 to 100%.

`Cc1cc(-c2cc3cnc(NC(=O)C4CC4)cc3n2C(C)C)ccn1` [Example 329, N-(1-isopropyl-2-(2-methylpyridin-4-yl)-1H-pyrrolo[3,2-c]pyridin-6-yl)cyclopropanecarboxamide]: the inhibition at 1 µM under setting [1] lay within 0 to 33%. For the same compound, the inhibition at 10 µM under setting [2] lay in the range of 0 to 33%.

Consider `Cn1c(-c2cnco2)cc2cnc(NC(=O)C3CC3)cc21` [Example 74, N-(1-methyl-2-(oxazol-5-yl)-1H-pyrrolo[3,2-c]pyridin-6-y)cyclopropanecarboxamide], for which the concentration for a half-maximal effect (EC50) is over 1 µM.

`Cc1cc(-c2cc3cnc(NC4CCOC4)cc3[nH]2)ccn1` (stereo in doubt) [Example 52, (S)-2-(2-methylpyridin-4-yl)-N-(tetrahydrofuran-3-yl)-1H-pyrrolo[3,2-c]pyridin-6-amine] registered an EC50 of over 1 µM.

For the compound `O=C(Nc1cc2[nH]c(C(F)(F)F)cc2cn1)C1CCC1` [Example 76, N-(2-(trifluoromethyl)-1H-pyrrolo[3,2-c]pyridin-6-yl)cyclobutanecarboxamide], the concentration giving a half-maximal response (EC50) was over 1 µM.

Turning to `CC(C)(O)c1cc(-c2cc3cnc(Nc4cccc(-c5nc[nH]n5)c4)cc3[nH]2)ccn1` [Example 215, 2-(4-(6-(3-(1H-1,2,4-triazol-3-yl)phenylamino)-1H-pyrrolo[3,2-c]pyridin-2-yl)pyridin-2-yl)propan-2-ol], under setting [1], the inhibition at 1 µM is 33 to 66%. Moreover, the inhibition at 10 µM under setting [2] lay within 67 to 100%.

As to `Cc1cc(Nc2cc3[nH]c(-c4cccnc4)cc3cn2)cc(-n2cncn2)c1` [Example 337, N-(3-methyl-5-(1H-1,2,4-triazol-1-yl)phenyl)-2-(pyridin-3-yl)-1H-pyrrolo[3,2-c]pyridin-6-amine], the inhibition at 1 µM under setting [1] is 0 to 33%. For the same compound, the inhibition at 10 µM under setting [2] lay within 0 to 33%.

Take `COc1nccc(-c2cc3cnc(NC(=O)c4cnn(CC5CCOC5)c4C)cc3[nH]2)n1` (stereo in doubt) [Example 179, (S)-N-(2-(2-methoxypyrimidin-4-yl)-1H-pyrrolo[3,2-c]pyridin-6-yl)-5-methyl-1-((tetrahydrofuran-3-yl)methyl)-1H-pyrazole-4-carboxamide]: the inhibition at 1 µM (single point inhibition @ 1 uM) is 0 to 33%. For the same compound, the inhibition at 10 µM under setting [3] was 67 to 100%.

Turning to `c1ccc(Nc2cc3[nH]c(-c4ccccc4)cc3cn2)cc1` [Example 271, N,2-diphenyl-1H-pyrrolo[3,2-c]pyridin-6-amine], the inhibition at 1 µM under setting [1] was in the range of 0 to 33%. In addition, under setting [2], the inhibition at 10 µM was in the range of 0 to 33%.

Take `O=C(Nc1cc2c(cn1)cc(C(F)(F)F)n2CCO)C1CC1` [Example 116, N-(1-(2-hydroxyethyl)-2-(trifluoromethyl)-1H-pyrrolo[3,2-c]pyridin-6-yl)cyclopropanecarobxamide]: the EC50 is over 1 µM.

Take `Cn1cc(-c2cc3cnc(Nc4ccc(C(F)(F)F)cc4)cc3[nH]2)cn1` [Example 222]: under setting [2], the inhibition at 10 µM was 33 to 66%.

As to `Cc1cc(-c2cc3cnc(N(C)C(=O)C4CC4)cc3[nH]2)ccn1` [Example 86, N-methyl-N-(2-(2-methylpyridin-4-yl)-1H-pyrrolo[3,2-c]pyridin-6-yl)cyclopropanecarboxamide], the 50% effective concentration (EC50) was over 1 µM. The inhibition at 1 µM (single point inhibition @ 1 uM) was in the range of 33 to 66%. The inhibition at 10 µM under setting [3] fell in the range of 0 to 33%.
